These results are taken from a melting point compilation (Tetko et al.; mined from patent text by program, amines drawn as free bases though some values may be those of a salt).

A word on the melting point: it is the temperature of the solid-liquid transition.

With `O=C1COCCN1c1ccc([N+](=O)[O-])cc1`, the melting point lay within 150 to 152 °C. The compound `N=C(NO)c1cccc2nc(N[C@@H]3CCc4ccccc43)ccc12` yielded a melting point of 200 °C.

Turning to `OCc1ccc(Br)nc1`, the melting point was 49 to 51 °C. `CSc1nnc(-c2ccccc2)n1C` gave a melting point of 134 to 135 °C. Take `O=c1[nH]c(=O)n(CCCCBr)c2ccc(Cl)cc12`: the melting point is 154 to 156 °C. `O=C1CCC2=C(CCc3cccc(F)c32)N1` came in with a melting point of 199 °C. Consider `CC(C)(C)OC(=O)N1CCC(c2ccc(COc3ccc(-c4nc[nH]n4)cc3)nc2)CC1`, for which the melting point fell in the range of 147 to 150 °C.

Take `CCn1c(Cn2ccnc2-c2cc(F)ccc2F)nc2ncccc21`: the melting point lay in the range of 214 to 216 °C.

Compound `COc1ccc(Cc2cnc(NCCSCc3nccs3)[nH]c2=O)cn1` gave a melting point of 95 to 97 °C. As for `COc1ccc(C=CC(=O)N2CC(CCl)c3c2cc(N)c2ccccc32)cc1` (centres undefined), the figure is 114 to 116 °C.

`COc1ccc2c(c1)c(SC)c(C(N)=O)n2C`: the melting point was 204 to 206 °C. As for `Cc1nn(-c2cc(OC(F)F)n(C)n2)c(-c2ccc(Cl)cc2)c1CC(=O)O`, the figure is 112 °C. To `CSc1c(Cl)nc(N2CCNCC2)nc1NC(C)C` belongs 147 °C. To `CSC(=O)c1c(C(F)F)nc(C(F)(F)F)c(C(=O)SC)c1NC1CC1` belongs 85 to 86 °C; to `CC1(C)C(=O)N(c2ccc([N+](=O)[O-])c(C(F)(F)F)c2)C(=O)N1CCCN1C(=O)N(c2ccc([N+](=O)[O-])c(C(F)(F)F)c2)C(=O)C1(C)C`, 164 to 165 °C.

The compound `COc1cc(OCCN2CCOCC2)c(C=CC(=O)c2ccc(C(N)=O)cc2)cc1-c1cccs1` showed a melting point of 183 to 184 °C. As for `COc1ccc(C2C(=O)N(c3ccccc3)N(c3ccccc3)C2=O)cc1`, the figure is 184 to 185 °C. Compound `O=C(O)c1ccc2c(c1)S(=O)c1ccccc1C2=O` (centres undefined) gave a melting point of 295 to 296 °C. `CCOc1cc(-c2cc(C(F)(F)F)n3ncc(C(=O)Nc4cccc(S(N)(=O)=O)c4)c3n2)ccc1C(F)(F)F` returned a melting point of 253 °C. As for `COC(=O)C[C@@H](CC(=O)C=Cc1c(-c2ccc(F)cc2)c(-c2ccccc2)c(C(=O)NCc2ccc(F)cc2)n1C(C)C)O[Si](C)(C)C(C)(C)C`, the figure is 62 to 63 °C; as for `O=C(O)COc1cc2ccsc2c(Cl)c1Cl`, 166 to 167 °C. `CCc1nc2ccc(C(C(C)C)n3ccnc3)cc2[nH]c1=O` (centres undefined) registered a melting point of 204 °C. To `C=C1CC2(CC)C(=O)CC(O)C2C2CCC3=CC(=O)CCC3C12` (centres undefined) belongs 228 °C; to `CC(C)C1(n2cccn2)CN(C(=O)O)N=C1c1ccc(F)cc1` (centres undefined), 125 °C; to `CC(O)c1nccc2ccccc12` (centres undefined), 60 to 62 °C.

`CC1(C)CSSC[C@@H](C(=O)O)NC1=O` registered a melting point of 160 to 162 °C.

For the compound `OC1Cc2cccc(-c3ccccc3)c2C1` (single isomer, unassigned; (+)), the melting point was in the range of 100 to 101 °C. To `CN(C)c1nnc(SCC(=O)C23CC4CC(CC(C4)C2)C3)s1` belongs 150 to 151 °C; to `CCN(C(=O)c1ccc(C(=O)c2cnc3ccccn23)cc1)c1ccccc1`, 141 to 145 °C; to `c1ccc2c(c1)ccn2Nc1ccncn1`, 81 to 85 °C. Turning to `COC(=O)c1ccc(OCCCO/N=C/c2cn(Cc3ccccc3)c3ccccc23)cc1O`, the melting point was 100 to 102 °C. Compound `Cc1cc(-c2cc(C(F)(F)F)n3cnc(C#N)c3n2)ccc1C(F)(F)F` yielded a melting point of 217 °C.

Regarding `COc1c(Cl)ccc(C2=NC(C)(C)CO2)c1SC`, the melting point lay within 50 to 52 °C. As for `CCOC(=O)C(C)(C)Oc1ccc(C(=O)Nc2ccccc2Sc2ccccc2-c2nnn[nH]2)cc1`, the figure is 157 to 158 °C. Regarding `CC(C)(C)OC(=O)Nc1cccc(C(=O)OCC#N)c1`, the melting point was 118 to 119 °C. For the compound `CCOP(=O)(Cc1ccc(C(=O)Nc2ccccc2C(=O)O)cc1)OCC`, the melting point lay in the range of 171 to 172 °C. In turn, `COc1cccc(-c2noc3ccsc23)c1` returned a melting point of 51 to 52 °C.

In the case of `Cn1ncc(/C=C/C(=O)Nc2ccc(Cc3nc(C(N)=O)cs3)cc2)c1-c1ccc(F)cc1`, the melting point lay in the range of 159 to 160 °C. `OCc1nccc2c1[nH]c1ccccc12`: the melting point lay in the range of 228 to 230 °C.

For the compound `CNC(=S)C1(c2cccnc2)CCCS1` (centres undefined), the melting point was 133 °C. To `COc1ccc(C(=O)CC(C)C)cc1OCCCO` belongs 38 to 40 °C. Turning to `CC(C)C[C@H](NC(=O)c1ccc(C(=N)N)cc1)C(=O)N1CCc2nn(CC(=O)O)cc2C1`, the melting point lay within 165 to 169 °C. To `Cc1c(C=O)c2cnnc(NCc3ccccc3)c2n1Cc1ccccc1` belongs 171 to 172 °C; to `CC(=O)NNc1nc(C(F)(F)F)nc(-c2ccc(C)cc2)c1-c1ccccc1`, 147 to 152 °C; to `COC(=O)Cc1ccc(NC(=O)Nc2ccccc2C)c(OC)c1`, 167 to 168 °C.

As to `COc1ccc(Cl)c(S(=O)(=O)NC(=O)c2cn3cc(C(F)(F)F)cc(Cl)c3n2)c1`, the melting point fell in the range of 211 to 212 °C. To `CS(=O)(=O)NC(=O)c1cccc(-c2ccc(Cl)c(C(=O)NCC34CC5CC(CC(C5)C3)C4)c2)n1` belongs 160 to 162 °C; to `COC(=O)c1ccc2c(CCCNc3ccccn3)nn(C)c2c1`, 101 to 104 °C; to `Cc1cc2c(c(C(C)(C)C)c1)OP(NC1CC(C)(C)N(C)C(C)(C)C1)Oc1c(cc(C)cc1C(C)(C)C)C2`, 207 to 216 °C. Compound `CON=C(C(=O)NC1C(=O)N2C(C(=O)O)=C(CSc3nnnn3C)SCC12)c1csc(N)n1` (centres undefined) displayed a melting point of 180 °C. As for `Cc1nc2c(N)nc3ccccc3c2n1CCOCCNC(=O)c1ccccc1`, the figure is 210 to 212 °C.

`COc1ccc(N2C3CCC(C(=O)C3)C2c2ccc(Cl)cc2)cc1OC` (centres undefined): the melting point was in the range of 42 to 43 °C.

Take `CC(C)(C)NCC(O)c1cc(Br)c(N)c(C(N)=O)c1` (centres undefined): the melting point fell in the range of 135 to 145 °C. As for `CSCc1ccc2ncnc(Nc3cccc(C)c3)c2c1`, the figure is 134 to 136 °C.

The compound `CCCCCOc1ccc2cc(C(C)C(=O)O)ccc2c1` (centres undefined) returned a melting point of 97 to 99 °C.

The compound `COC[C@H]1CN(C2=Nc3ccccc3Nc3sc(C)cc32)CCN1` came in with a melting point of 87 to 95 °C.

For the compound `CCOc1cc2ncc(C#N)c(Nc3ccc(Sc4ccccc4)c(Cl)c3)c2cc1OCC`, the melting point lay within 88 to 94 °C. To `c1cncc(C2CCCCC2)c1` belongs 78 to 80 °C; to `O=C1CCCc2ccc(OCCCCN3CCN(c4cccc5ccc(F)cc45)CC3)nc2N1`, 202 to 203 °C.

The compound `O=C(O)Cc1coc2cc(OCc3cc(-c4ccc(C(F)(F)F)cc4)on3)ccc12` registered a melting point of 201 °C. To `O=C(O)c1cc(-c2ccc(OCc3ccccc3)cc2OCc2ccccc2)no1` belongs 192 to 193 °C; to `CCCCC1N=c2ccc(OCC)c(C(=O)OCC)c2=NC1=O` (centres undefined), 168 to 169 °C. `O=C(O)c1cn(-c2ccc(Cl)cc2)c2c(F)c(F)c(F)cc2c1=O` displayed a melting point of 117 to 118 °C.

Turning to `COC(=O)c1cc(Oc2ccc([N+](=O)[O-])cc2)cc(Oc2ccc([N+](=O)[O-])cc2)c1`, the melting point is 180 to 182 °C. `Cc1ncccc1CC(=NC#N)NC1CCCc2ccccc21` (centres undefined) returned a melting point of 193 to 194 °C. Turning to `O=C1CCc2c1cccc2[N+](=O)[O-]`, the melting point was 94 to 97 °C. To `O=C1c2cccnc2N(N2CCCCC2)C2=NCCN12` belongs 206 to 207 °C; to `COC(=O)C=CC(=O)OC(=C1C(=O)N(C(N)=O)c2cc(Cl)c(F)cc21)c1cccs1`, 184 to 186 °C; to `CS(=O)(=O)N(CCN1C(=O)c2ccccc2C1=O)c1c(Cl)c(Cl)cc2[nH]c(=O)c(=O)[nH]c12`, over 300 °C.

On to `Cc1ccc(N2CCN(Cc3ccc4c(c3)NC(=O)CO4)CC2)cc1`, for which the melting point lay within 209 to 212 °C. In turn, `COC(=O)c1ccc(S(C)(=O)=O)c(CBr)c1Cl` registered a melting point of 77 to 78 °C. To `NCC1(O)CCCc2c1ccc1c2OCO1` (centres undefined) belongs 140 to 142 °C.

Take `O=C(O)c1cc(Br)ccc1Sc1ccccc1`: the melting point lay in the range of 171 to 173 °C. As for `O=C(O)c1ccc(-c2ccccc2O)cc1`, the figure is 176 to 178 °C.

Take `CC(C)c1cccc(C(C)C)c1NC(=O)CSCC(=O)O`: the melting point lay in the range of 168 to 169 °C. `COc1ccc(C(=O)CC(=O)C(C)(C)C)cc1C(=O)CC(=O)C(C)(C)C` showed a melting point of 69.4 to 70.8 °C. As for `O=[N+]([O-])c1ccc(-c2nnc3ccc(Cl)nn23)s1`, the figure is 215 to 217 °C; as for `CC(C)(C(=O)O)c1ccc(C(=O)C2CC2)cc1`, 84 to 88 °C; as for `CC(Cc1ccc(OCCNC(=O)c2ccc(-c3ccccn3)cc2)cc1)(Oc1ccccc1)C(=O)O` (centres undefined), 76 to 79 °C.

With `CC1Cc2c(NN)c(Cl)cc(Cl)c2O1` (centres undefined), the melting point lay within 59 to 64 °C. As for `CCOc1cc2c(Nc3ccc(OC)cc3)c(C(=O)O)cnc2nc1C`, the figure is 259 to 263 °C.

Turning to `CCCCCCCCCCCCCCCCCCNC(=O)OC(=O)CCCCCCCCCCC`, the melting point was determined as 83 °C.

With `CN(CCOc1ccc(Cn2cc(CCC(=O)O)c(-c3ccccc3)n2)cc1)c1ccccn1`, the melting point lay within 110 to 111 °C. Turning to `CCc1noc(-c2cn(-c3ccc(OCc4ccccc4)cc3)cn2)n1`, the melting point is 171 to 172 °C. Regarding `CCOc1ccc(C2=NN(c3ccc(C(=O)N4CCSCC4)cc3)C(=O)[C@H]3CC=CC[C@@H]23)cc1OCC` (relative stereo), the melting point is 104 to 106 °C. Consider `COc1ccc(Cc2cc(=O)[nH]c3nc(OCc4ccccn4)ncc23)cc1Cl`, for which the melting point is 130 to 131 °C.

`COC(=O)c1c(F)cc(OCCNC(=O)C2Cc3ccccc3N2S(=O)(=O)c2ccc(-c3ccc(F)cc3F)cc2)cc1F` (centres undefined): the melting point was 69 to 77 °C. To `CCC(CC)COc1cnc(N)nc1N` belongs 173 to 174 °C. To `CS(=O)(=O)Oc1ccc([N+](=O)[O-])c(OCCBr)c1` belongs 96 to 98 °C.
